Measurements as given in paper PMC3817140, “The Role of the Methyltransferase Domain of Bifunctional Restriction Enzyme RM.BpuSI in Cleavage Activity” (PLoS ONE, 2013).

Biological target: T1, RM.BpuSI (Bacillus pumilus, UniProt G1K3S1)
T1 construct: full-length (REase, helical connector, MTase domain, TRD); recombinant in E. coli ER3081, no tag told; treated with substrate DNA to remove SAM
T1 sequence (G1K3S1 1-878): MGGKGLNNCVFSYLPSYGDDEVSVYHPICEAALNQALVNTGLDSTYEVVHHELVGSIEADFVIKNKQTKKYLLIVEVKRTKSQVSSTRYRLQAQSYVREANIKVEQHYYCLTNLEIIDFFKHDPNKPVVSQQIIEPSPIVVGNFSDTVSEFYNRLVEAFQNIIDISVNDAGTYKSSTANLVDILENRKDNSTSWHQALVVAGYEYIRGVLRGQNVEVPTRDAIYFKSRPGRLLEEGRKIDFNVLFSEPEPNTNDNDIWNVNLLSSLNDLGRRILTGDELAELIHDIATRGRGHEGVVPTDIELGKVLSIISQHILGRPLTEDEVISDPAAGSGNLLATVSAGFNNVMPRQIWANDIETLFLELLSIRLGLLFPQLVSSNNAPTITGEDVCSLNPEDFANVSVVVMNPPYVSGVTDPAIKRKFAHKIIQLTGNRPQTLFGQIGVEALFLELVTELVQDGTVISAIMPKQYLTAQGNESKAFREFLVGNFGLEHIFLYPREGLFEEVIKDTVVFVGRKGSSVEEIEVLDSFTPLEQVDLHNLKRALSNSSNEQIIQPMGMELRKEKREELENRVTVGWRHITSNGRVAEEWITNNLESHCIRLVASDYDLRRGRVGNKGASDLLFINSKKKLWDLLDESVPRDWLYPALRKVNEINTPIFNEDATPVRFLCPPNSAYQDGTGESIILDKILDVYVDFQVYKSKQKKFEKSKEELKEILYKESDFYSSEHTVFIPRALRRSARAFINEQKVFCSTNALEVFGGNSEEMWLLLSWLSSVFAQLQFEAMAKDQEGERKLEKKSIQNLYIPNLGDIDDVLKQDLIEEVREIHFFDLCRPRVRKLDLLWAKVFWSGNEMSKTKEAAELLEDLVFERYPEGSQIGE
Test: ANS fluorescence titration
Format: binding

C[S+](CC[C@H](N)C(=O)O)C[C@H]1O[C@@H](n2cnc3c(N)ncnc32)[C@H](O)[C@@H]1O (some centres unmarked) [SAM]
Kd: 76.4 ± 18.2 µM

Nc1ncnc2c1ncn2[C@@H]1O[C@H](C[C@@H](N)CC[C@H](N)C(=O)O)[C@@H](O)[C@H]1O [sinefungin]
Kd: 71.1 ± 14.2 µM
